Data taken from patent US20250109140A1, “5-[5-(PIPERIDIN-4-YL)THIENO[3,2-C]PYRAZOL-2-YL]INDAZOLE DERIVATIVES AND RELATED COMPOUNDS AS MODULATORS FOR SPLICING NUCLEIC ACIDS AND FOR THE TREATMENT OF PROLIFERATIVE DISEASES” (REMIX THERAPUTICS INC., priority 2022, published 2025).
Where two headings read alike, the source gives them in different places.

How the values were obtained:
Type in all cases: cell-based
[1] = test system: SMN2 mRNA; experiment: Splicing RT-qPCR gene panel, SMN2 canonical junction (CJ) mRNA; settings: Homo sapiens; Table 8; larger gene panel, decrease in CJ mRNA levels
Experimental: (§1) Compounds described herein were used to modulate RNA transcript abundance in cells. The expression of a target mRNA was measured by detecting the formation of an exon-exon junction in the canonical transcript (CJ). A compound mediated exon-inclusion event was detected by observing an increase in formation of a new junction with an alternative exon (AJ). Real-time qPCR assays were used to detect these splicing switches and interrogate the potency of various compounds towards different target genes. A high-throughput real time quantitative PCR (RT-qPCR) assay was developed to measure these two isoforms of the mRNA (CJ and AJ) for exemplary genes, such as HTT, SMN2, and MYB, together with a control housekeeping gene, GAPDH or GUSB or PPIA, used for normalization. Briefly, the A673 or K562 cell line was treated with various compounds described herein (e.g., compounds of Formula (I)). After treatment, the levels of the HTT, MYB, or SMN2 mRNA targets were determined from each sample of cell lysate by cDNA synthesis followed by qPCR.
(§2) The A673 cell line was cultured in DMEM with 10% FBS. Cells were diluted with full growth media and plated in a 96-well plate (15,000 cells in 100 ul media per well). The plate was incubated at 37° C. with 5% CO2 for 24 hours to allow cells to adhere. An 11-point 3-fold serial dilution of the compounds was made in DMSO then diluted in media in an intermediate plate. Compounds were transferred from the intermediate plate to the cell plate with the top dose at a final concentration of 10 uM in the well. Final DMSO concentration was kept at or below 0.25%. The cell plate was returned to the incubator at 37° C. with 5% CO2 for an additional 24 hours.
(§3) The K562 cell line was cultured in IMDM with 10% FBS. For K562, cells were diluted with full growth media and plated in either a 96-well plate (50,000 cells in 50 uL media per well) or a 384-well plate (8,000-40,000 cells in 45 uL media per well). An 11-point 3-fold serial dilution of the compounds were made in DMSO then diluted in media in an intermediate plate. Compound was transferred from the intermediate plate to the cell plate with the top dose at a final concentration of 10 uM in the well. Final DMSO concentration was kept at or below 0.25%. Final volume was 100 uL for 96-well plate and 50 uL for 384-well plate. The cell plate was then placed in an incubator at 37° C. with 5% CO2 for 24 hours.
(§4) The cells were then gently washed with 50 uL-100 uL cold PBS before proceeding to addition of lysis buffer. 30 uL-50 uL of room temperature lysis buffer with DNAse I (and optionally RNAsin) was added to each well. Cells were shaken/mixed thoroughly at room temperature for 5-10 minutes for lysis to take place and then 3 uL-5 uL of room temperature stop solution was added and wells were shaken/mixed again. After 2-5 minutes, the cell lysate plate was transferred to ice for RT-qPCR reaction setup. The lysates could also be frozen at-80° C. for later use.
(§5) In some cases, a direct lysis buffer was used. An appropriate volume of 3× lysis buffer (10 mM Tris, 150 mM NaCl, 1.5%-2.5% Igepal and 0.1-1 U/uL RNAsin, pH 7.4) was directly added to either K562 or A673 cells in media and mixed by pipetting 3 times. The plates were then incubated at room temperature with shaking/rocking for 20-50 minutes to allow for lysis to take place. After this time, the cell lysate plate was transferred to ice to set up for the RT-qPCR reactions. The lysates could also be frozen at −80° C. for later use.
(§6) To set up 10 uL RT-qPCR reactions, cell lysates were transferred to 384-well qPCR plates containing the master mix according to the table below. The plates were sealed, gently vortexed, and spun down before the run. The volumes were adjusted accordingly in some instances where the reaction was carried in 20 μL. The table below summarizes the components of the RT-qPCR reactions:
(§7) The RT-qPCR reaction was performed using a QuantStudio (ThermoFisher) under the following fast cycling conditions. […]

[2] = test system: Target C mRNA; experiment: Splicing RT-qPCR gene panel, Target C canonical junction (CJ) mRNA; settings: Homo sapiens; Table 8; larger gene panel, decrease in CJ mRNA levels
Experimental: as §1, §2, §3, §4, §5, §6, §7

[3] = test system: HTT mRNA; experiment: Splicing RT-qPCR assay, HTT canonical (CJ) and alternative (AJ) junction mRNA; settings: Homo sapiens; for EC50: AC50 = 50% response in AJ mRNA increase
Experimental: as §1, §2, §3, §4, §5, §6, §7

[4] = test system: MYB mRNA; experiment: Splicing RT-qPCR assay, MYB canonical (CJ) and alternative (AJ) junction mRNA; settings: Homo sapiens; for EC50: AC50 = 50% response in AJ mRNA increase
Experimental: as §1, §2, §3, §4, §5, §6, §7

[5] = Table 7, RT-qPCR, A673 or K562 cells, 24 hours treatment
[6] = Table 7, IC50 = 50% response in CJ mRNA decrease, RT-qPCR, A673 or K562 cells, 24 hours treatment, read-out: HTT CJ
[7] = Table 8, larger gene panel, decrease in CJ mRNA levels, read-out: HTT CJ IC50
[8] = Table 7, IC50 = 50% response in CJ mRNA decrease, RT-qPCR, A673 or K562 cells, 24 hours treatment, read-out: MYB CJ
[9] = Table 8, larger gene panel, decrease in CJ mRNA levels, read-out: MYB CJ IC50

SMILES	IC50 [1] [µM]	IC50 [2] [µM]	EC50 [3, 5] [µM]	IC50 [3, 6] [µM]	IC50 [3, 7] [µM]	EC50 [4, 5] [µM]	IC50 [4, 8] [µM]	IC50 [4, 9] [µM]
CN(c1cc2sc(-c3ccc(-c4cn[nH]c4)cc3O)nc2s1)[C@@H]1C[C@H]2CC[C@@H](C1)N2 [Compound 191, 2-{5-[(1R,3R,5S)-8-azabicyclo[3.2.1]octan-3-yl(methyl)amino]thieno[2,3-d][1,3]-thiazol-2-yl}-5-(1H-pyrazol-4-yl)phenol]	> 10	> 10	> 10	> 10	> 10	> 10	> 10	> 10
Cc1cn2nc(N3Cc4sc(C5CCNCC5)cc4C3=O)cc(C)c2n1 [Compound 1127]	< 0.1	0.1 to 1	< 0.1	< 0.1	< 0.1	0.1 to 1	0.1 to 1	0.1 to 1
CN1CCC2(CC1)CCN2c1cc2sc(-c3cc(F)c4nn(C)cc4c3)nc2s1 [Compound 204, 1-[2-(7-fluoro-2-methylindazol-5-yl)thieno[2,3-d][1,3]thiazol-5-yl]-7-methyl-1,7-diazaspiro [3.5]nonane]	1 to 10	1 to 10	1 to 10	1 to 10	1 to 10	1 to 10	1 to 10	1 to 10
CN1CCCC2(CCN2c2cc3sc(-c4cc(F)c5nn(C)cc5c4)nc3s2)C1 (stereo not shown) [Compound 203, 1-[2-(7-fluoro-2-methylindazol-5-yl)thieno[2,3-d][1,3]thiazol-5-yl]-6-methyl-1,6-diazaspiro[3.5]nonane]	1 to 10	> 10	> 10	> 10	> 10	> 10	> 10	> 10
Cn1cc2cc(N3Cc4sc(C5CCNCC5)cc4C3=O)cc(F)c2n1 [Compound 1119, 5-(7-fluoro-2-methylindazol-5-yl)-2-(piperidin-4-yl)-6H-thieno[2,3-c]pyrrol-4-one]	< 0.1	0.1 to 1	< 0.1	< 0.1	< 0.1	0.1 to 1	0.1 to 1	0.1 to 1
CCNC1CCN(c2cc3sc(-c4cc(F)c5nn(C)cc5c4)nc3s2)CC1 [Compound 137, N-ethyl-1-[2-(7-fluoro-2-methylindazol-5-yl)thieno[2,3-d][1,3]thiazol-5-yl]piperidin-4-amine]	< 0.1	0.1 to 1	0.1 to 1	0.1 to 1	0.1 to 1	0.1 to 1	0.1 to 1	0.1 to 1
Cc1cn2nc(-c3cc4sc(C5CCNCC5)nc4s3)cc(C)c2n1 [Compound 125, 4-(5-[2,8-dimethylimidazo[1,2-b]pyridazin-6-yl]thieno [2,3-d][1,3]thiazol-2-yl) piperidine]	0.1 to 1	1 to 10	0.1 to 1	0.1 to 1	0.1 to 1	0.1 to 1	1 to 10	0.1 to 1
Cn1cc2cc(-c3nc4sc(N5CCN6CCCC6C5)cc4s3)cc(F)c2n1 (stereo not shown) [Compound 144, 7-fluoro-5-(5-[hexahydro-1H-pyrrolo[1,2-a]pyrazin-2-yl]thieno[2,3-d][1,3]thiazol-2-yl)-2-methylindazole]	< 0.1	> 10	0.1 to 1	1 to 10	0.1 to 1	0.1 to 1	1 to 10	0.1 to 1
